The text below walks through data of patent US5039808A, “Therapeutically active cyclopropyl substituted compound” (priority 1988, dated 1991).

Data set [1] has as its system gastric acid secretion. The data set can be described thus: Inhibition of Gastric Acid Secretion in the Conscious Male Rat (pentagastrin and carbachol stimulated). It is filed as in vivo, Male rats of the Sprague-Dawley strain. To be noted: second hour after administration. The method, then:
(§1) The potency for inhibition of acid secretion has been measured in the male rat and the dog, both intravenously and intraduodenally. When it comes to relevance of the animal test data for potency of a given compound in man for the present type of compounds, it is believed that potency in man will correspond to a level somewhere between what is measured in the male rat and what is measured in the dog.
Male rats of the Sprague-Dawley strain were used. They were equipped with cannulated fistulae in the stomach (lumen) and the upper part of the duodenum, for collection of gastric secretions and administration of test substances, respectively. A fourteen days recovery period after surgery was allowed before testing commenced.
Before secretory tests, the animals were deprived of food but not water for 20 h. The stomach was repeatedly washed through the gastric cannula, and 6 ml of Ringer-Glucose given s.c. Acid secretion was stimulated with a infusion during 3.5 h (1.2ml/h, s.c.) of pentagastrin and carbachol (20 and 110 nmol/kg h, respectively), during which time gastric secretions were collected in 30-min fractions. Test substances or vehicle were given iv or id at 90 min after starting the stimulation, in a volume of 1 ml/kg. Gastric juice samples were titrated to pH 7.0 with NaOH, 0.1 mol/L, and acid output calculated as the product of titrant volume and concentration. Further calculations were based on group mean responses from 4-5 rats. The acid output during the periods after administration of test substances or vehicle were expressed as fractional responses, setting the acid output in the 30-min period preceding administration to 1.0. Percentage inhibition was calculated from the fractional responses elicited by test compound and vehicle. ED50 -values were obtained from graphical interpolation on log dose-response curves, or estimated from single-dose experiments assuming a similar slope for all dose-response curves. An estimation of the bioavailability was obtained by calculating the ratio ED50 iv/ED50 id. The results reported are based on gastric acid secretion during the second hour after drug/vehicle administration.

A short description of data set [2]: Bioavailability in the dog, AUC method. It is filed as in vivo, Harrier dogs of either sex. To be noted: id vs iv, plasma up to 3 h, extrapolated to infinite time, read-out: Bioavailability measured by the AUC-method F%, Dog. The method, then:
Bioavailability is assessed by calculating the quotient between the area under plasma concentration (AUC) curve following introduodenal (id) administration and intravenous (iv) administration from the rat or the dog. Low, therapeutically relevant doses, were used. This method is scientifically recognized as valid for assessing bioavailability (see for instance: M. Rowland and T. N. Tozer, Clinical Pharmacokinetics, 2nd ed., Lea & Febiger, London 1989, p 42).
(§2) Harrier dogs of either sex were used. They were equipped with a duodenal fistula for the administration of test compounds or vehicle and a cannulated ventricular fistula for the collection of gastric secretions.
Blood samples for the analysis of test compound concentration in plasma were taken at intervals up to 3 h after dosing. Plasma was separated and frozen within 30 min after collection. AUC (area under the plasma concentration - time curve), extrapolated to infinite time, was calculated by the linear trapezoidal rule. The systemic bioavailability (F%) after id administration was calculated as 100 × (AUCid /AUCiv).

The nature of data set [3]: Rough Screening Model for bioavailability: ratio ED50 iv/ED50 id of acid secretion inhibition in the rat. The arrangement: species or system Male rats of the Sprague-Dawley strain. To be noted: in vivo, ratio of ED50 values, read-out: "Bioavailability" measured by the Rough Screening Model, Rat ED50 iv/ED50 id. The method, then:
Since the bioavailability model described above is time and labour intensive, and requires a large number of plasma analyses, also a rough screening model, based on relative potencies to inhibit acid secretion, has been used (see for instance: A. Goth, Medical Pharmacology, 7the ed., C. V. Mosby Company, Saint Louis 1974, p 19). Thus, the ratio (called "Bioavailability" in Table 3) between the ED50 at intravenous administration and the ED50 at intraduodenal administration was calculated.
Before secretory tests, the animals were deprived of food but not water for 20 h. The stomach was repeatedly washed through the gastric cannula, and 6 ml of Ringer-Glucose given s.c. Acid secretion was stimulated with a infusion during 3.5 h (1.2ml/h, s.c.) of pentagastrin and carbachol (20 and 110 nmol/kg h, respectively), during which time gastric secretions were collected in 30-min fractions. […] Gastric juice samples were titrated to pH 7.0 with NaOH, 0.1 mol/L, and acid output calculated as the product of titrant volume and concentration. […] The acid output during the periods after administration of test substances or vehicle were expressed as fractional responses, setting the acid output in the 30-min period preceding administration to 1.0. Percentage inhibition was calculated from the fractional responses elicited by test compound and vehicle. […]

For data set [4], the system named is gastric acid secretion. The data set can be described thus: Inhibition of Gastric Acid Secretion in the Conscious Dog (histamine stimulated). It is filed as in vivo, Harrier dogs of either sex. The method, then:
as §1, §2
Before secretory tests the animals were fasted for about 18 h but water was freely allowed. Gastric acid secretion was stimulated by a 4 h infusion of histamine dihydrochloride (12 ml/h) at a dose producing about 80% of the individual maximal secretory response, and gastric juice collected in consecutive 30-min fractions. Test substance or vehicle was given id or iv 1 h after starting the histamine infusion, in a volume of 0.5 ml/kg body weight. The acidity of the gastric juice samples were determined by titration to pH 7.0, and the acid output calculated. The acid output in the collection periods after administration of test substance or vehicle were expressed as fractional responses, setting the acid output in the fraction preceding administration to 1.0. Percentage inhibition was calculated from fractional responses elicited by test compound and vehicle. ED50 -values were obtained by graphical interpolation on log dose - response curves, or estimated from single-dose experiments under the assumption of the same slope of the dose-response curve for all test compounds. All results reported are based on acid output 2 h after dosing.

A short description of data set [5]: Bioavailability in the Male Rat, AUC method. It is filed as in vivo, Male adult rats of the Sprague-Dawley strain. The note with it: blood, 4 umol/kg, 4 μmol/kg id and iv, up to 4 h, extrapolated to infinity, read-out: Bioavailability measured by the AUC-method F%, Rat. From the text:
The results from tests on two different animal species, rat and dog, vary in regard to measured level of bioavailability for the same compound. We believe that the rat is the more relevant species for bioavailability testing. This is based on our belief that liver metabolism has the most predominant impact upon bioavailability, and that the liver metabolic pattern in man for this type of compounds is quite similar to that of the male rat (more so than of the female rat and the dog). Moreover, test results of bioavailability in the male rat will tend to give a broader "spread" compared with the test results in the dog, and thus the male rat model will give more clear differences in bioavailability between different compounds. […]
Bioavailability is assessed by calculating the quotient between the area under plasma concentration (AUC) curve following introduodenal (id) administration and intravenous (iv) administration from the rat or the dog. […]
The area under the blood concentration vs time curve, AUC, was determined by the linear trapezoidal rule and extrapolated to infinity by dividing the last determined blood concentration by the elimination rate constant in the terminal phase. The systemic bioavailability (F%) following intraduodenal administration was calculated as [formula]

Data set [6] in a line: Chemical stability in aqueous buffer solution. To be noted: low concentration. The data set is classed as physicochemical. The method, then: The chemical stability of various compounds of the invention has been followed kinetically at low concentration at 37°C. in aqueous buffer solution at different pH values. The results in Table 3 show the half life (t 1/2) at pH 7, that is the time period after which half the amount of the original compound remains unchanged.

With `[O-][S+](Cc1cc(OCC2CC2)ccn1)c1nc2cc(F)ccc2[nH]1` (stereo not drawn) [Example 1, 5-fluoro-2-[[(4-cyclopropyl-methoxy-2-pyridinyl)methyl]sulfinyl]-1H-benzimidazole], the median effective dose (ED50) amounted to 2.2 µmol/kg with gastric acid secretion [1] (route id, read-out: Inhibition of acid secretion, Rat ED50, id); 1.2 µmol/kg with gastric acid secretion [1] (route iv, read-out: Inhibition of acid secretion, Rat ED50, iv); 1 µmol/kg in the data set with gastric acid secretion [4] (Canis lupus familiaris, dog, route id, acid output 2 h after dosing). Also, the results for the bioavailability in data set [2], in data set [3] and in data set [5] were 80%, 55% and 82%, respectively. Also, the “inhibition of acid secretion” value in the data set with gastric acid secretion [4] (Dog 1, 1 μmol/kg, iv) turned out to be 35%; in the data set with gastric acid secretion [4] (Dog 3, 2 μmol/kg, iv), 98%. The “inhibition of acid secretion (in words)” value in the data set on gastric acid secretion [4] (Dog 2, 1 μmol/kg, iv) is “no effect”. The “Chemical stability at pH 7, half-life (t 1/2)” value in data set [6] (37°C) was 23 h. Also, in data set [6] (pH 7, 37°C, read-out: Chemical stability at pH 7, half-life (t 1/2) (converted)), the half-life was 23 h.

For `CC(C)Oc1ccnc(C[S+]([O-])c2nc3cc(F)ccc3[nH]2)c1` (stereo not drawn) [Ref., 5-fluoro-2-[[(4-isopropoxy-2-pyridinyl)-methyl]sulfinyl]-1H-benzimidazole, reference compound], the “Inhibition of acid secretion, Rat ED50, id” value in the data set on gastric acid secretion [1] (route id) was determined as 4.0 µmol/kg. For the same compound, in the data set with gastric acid secretion [1] (route iv), the “Inhibition of acid secretion, Rat ED50, iv” value worked out at 1.8 µmol/kg. In addition, the “inhibition of acid secretion” value came out at 95% with gastric acid secretion [4] (Dog 4, 3 μmol/kg, id (footnote to id column)) and 98% with gastric acid secretion [4] (Dog 5, 3 μmol/kg, id (footnote to id column)).

The term ED50 denotes the midpoint of the dose-response relation.
